Here are results for 13 molecules from PMC8252026, “Photochemical Probe Identification of a Small‐Molecule Inhibitor Binding Site in Hedgehog Acyltransferase (HHAT)” (Angewandte Chemie (International Ed. in English), 2021).

Molecules are shown by their SMILES. “Also recorded” adds a separate entry of the source.

In data set [1] the target is T1, human HHAT (Homo sapiens, UniProt Q5VTY9).
T1 construct: Full-length human HHAT (UniProt Q5VTY9); made in house
The data set is described as follows: Acyl-cLIP assay, dose-response inhibition of purified HHAT. The settings on record: for IC50 / HHAT inhibition (in words): purified HHAT; for IC50: real-time Acyl-cLIP, mean and 95 % CI, n=3; for HHAT inhibition (in words): Acyl-cLIP. The data set is classed as biochemical. On the procedure: We recently reported the acylation‐coupled lipophilic induction of polarization (Acyl‐cLIP) assay, a facile and universally applicable method to monitor enzymes processing lipid post‐translational modifications which uses the hydrophobicity increase on lipidation to drive a polarized fluorescence readout. ^[15] Dose‐response analysis of inhibition of purified HHAT was conducted using real‐time Acyl‐cLIP analysis (Table 1).
AMBIC (ammonium bicarbonate); CDI (1,1’-carbonyldiimidazole); DCM (dichloromethane); DDM (n-dodecyl-β-D-maltopyranoside); DIPEA (N,N-diisopropylethylamine); DMF (dimethylformamide); DTT (dithiothreitol); EDTA (ethylenediaminetetraacetic acid); FAM (5/6-carboxyfluorescein); HEPES (4-(2-hydroxyethyl)-1-piperazineethanesulfonic acid); HOBt (hydroxybenzotriazole); TBME (tert-butyl methyl ether); TBTA (tris[(1-benzyl-1H-1,2,3-triazol-4-yl)methyl]amine); TCEP (tris(2-carboxyethyl)phosphine hydrochloride); TEA (triethylamine); TFA (trifluoroacetic acid); THF (tetrahydrofuran); TRIS (tris(hydroxymethyl)aminomethane).
All reagents were purchased from commercial sources (Sigma-Aldrich, Fisher Scientific, Acros Organics, Novabiochem) and used without further purification.
Pal-CoA (Sigma Aldrich) was stored in NaOAc (0.1 M, pH 6.0) at -80 °C. RUSKI-201 (1) was synthesised as previously described.[1b] The peptide comprising of residues 24-43 of SHH (residues 1-10 of the mature protein) labelled with 5/6-carboxyfluorescein (SHH-FAM) was prepared as previously described.
Mixtures described as % represent v/v unless otherwise stated.
Biological and Biochemical Methods
Full-length human HHAT (UniProt Q5VTY9) C -terminally fused with a 1D4 epitope tag was expressed and purified via antibody purification with Rho -1D4 antibody (University of British Columbia) coupled to CNBr-activated sepharose beads (GE Healthcare) as previously described.[9] Purified HHAT 0.1-0.2 mg/mL in storage buffer (10 mM HEPES, 150 mM NaCl, 5% glycerol, 0.025% (w/v) DDM, 0.0006% (w/v) cholesterol-hemisuccinate, pH 7.5) was flash-frozen in liquid nitrogen and stored at -80 °C.
The Acylation-coupled Lipophilic Induction of Polarisation (Acyl -cLIP) was performed as previously described,[9] using Rho-1D4 antibody purified HHAT. Briefly, HHAT was diluted to 45 µg/mL in solubilisation buffer (20 mM HEPES, 350 mM NaCl, 1% (w/v) DDM, 5% glycerol, pH 7.3) added to SHH-FAM (2 µM) in reaction buffer (100 mM MES, 20 mM NaCl, 1 mM DTT, 1 mM TCEP, 0.1% (w/v) BSA, pH 6.5) in a 1:10 (v/v) ratio, respectively. The HHAT/SHH-FAM solution (12 µL/well) was dispensed into a black 384-well plate (Corning, 3575). The reaction was initiated by addition of Pal-CoA (7.5 µM) in reaction buffer (8 µL/well), and fluorescence anisotropy measured every 1 min for 1 h on an EnVision Xcite 2104 (PerkinElmer).
Measurement used a FITC FP D505fp mirror module, FITC FP 480 nm excitation filter (30 nm bandwidth), FITC FP P-pol 535 nm first emission filter (40 nm bandwidth), and FITC FP S-pol […]
(§1) 535 nm second emission filter (40 nm bandwidth), measurement height = 9.52 mm, 8 flashes/well, PMT gain = 319, and G-factor = 1.09. Fluorescence anisotropy was calculated […]
(§2) Where S is signal in the S-channel, P is signal in the P-channel, and G is the G-factor.
(§3) Assay data were evaluated using Microsoft Excel 2013 and GraphPad Prism 5.0. Initial rate constants were determined by linear regression, normalized to DMSO negative controls and background corrected to positive controls with solubilization buffer instead of HHAT. The half-maximal inhibitory concentration (IC 50) was calculated using a 4-parameter sigmoidal dose-response curve fit. Determination of the mechanism of inhibition of IMP -1575 relative to Pal-CoA was performed by fitting equation 2 for a mixed model of inhibition[10] using nonlinear […]
Where v is the observed rate of reaction, Vmax is the maximum rate, [I] is the inhibitor concentration, [S] is the substrate concentration, Km is the substrate concentration at ½ Vmax, […]

For data set [2], the target named is HHAT. On the set-up: method as in PMID 23416332. The settings on record: reported as noncompetitive with Pal-CoA; cited from earlier work.
The nature of data set [3]: Photoactivation analysis by LC/MS under UV irradiation (365 nm). Type of data set: physicochemical. The settings on record: 100 μM in water on ice.
Data set [4] deals with T1, human HHAT. The data set is described as follows: Photocrosslinking to purified HHAT, CalFluor-647 CuAAC and in-gel fluorescence. The data set is classed as binding. The settings on record: for crosslinking of probe to HHAT (in-gel fluorescence): probe 10 μM, purified HHAT, UV 365 nm 1 min. The text has this: These new insights led to design of photocrosslinking chemical probes 10 and 11 to investigate the small‐molecule binding site in HHAT (Figure 2 A). In probe 10 the secondary amine moiety was exchanged for a diazirine group, and the terminal alkyl chain replaced with an alkyne; probe 11 contains an additional carbon between the carbonyl and diazirine. The diazirine allows photoactivated chemical crosslinking to nearby residues in HHAT, with the alkyne allowing biorthogonal functionalization via copper(I)‐catalyzed azide‐alkyne cycloaddition (CuAAC, “click chemistry”) for subsequent analysis. […] The sidechains were synthesized and coupled to 2 (Scheme S4,5). […] Protein crosslinking was next investigated through CuAAC functionalization with a fluorophore and in‐gel fluorescence readout. As an integral membrane protein, HHAT presents substantial challenges in sample handling and cannot be precipitated to remove excess fluorophore which otherwise binds non‐specifically (data not shown). Fluorogenic azide CalFluor‐647 (Figure S8) ^[18] was therefore used to reduce background fluorescence from dye that had not reacted with alkyne probe. 10 or 11 (10 μM) were incubated with purified HHAT with or without UV irradiation (1 min). […]
Molecule for alignment. Compounds 1-9 (R)-enantiomers and IC50 values from the Acyl-cLIP assay were used as a Training Set . For the purpose of analysis of weakly active inhibitors, […]
Conformation Hunt was set to Normal, Alignment set to Normal, and Build Model set to Field
QSAR. Probes 10 and 11 were used as a Prediction Set .
Photoactivation Analysis by LC/MS
A solution of 10 or 11 (100 μM) in water was cooled on ice and irradiated using a custom-made UV light source (365 nm, 25 mW/cm2) for the indicated times. […]
All steps were performed in the dark in a cold room (4 °C), until specified otherwise. […] The gel was run until the loading dye had eluted from the gel (typically 55 min at 200 V) and the in-gel fluorescence […]
recorded (Excitation: 635 nm Emission: 669 nm) on a Typhoon FLA 9500 (GE Healthcare). […]

For data set [5], the target named is T1, human HHAT. The experiment in a line: Acyl-cLIP inhibition kinetics at varying Pal-CoA concentrations (mixed model of inhibition). Type of data set: biochemical. On the procedure:
IMP‐1575 (50–0.023 μM) was therefore analyzed for effects on HHAT kinetics at varying Pal‐CoA concentrations (50–0.19 μM, Figure 3 B,C).
as §1, §2, §3
Where v is the observed rate of reaction, Vmax is the maximum rate, [I] is the inhibitor concentration, [S] is the substrate concentration, Km is the substrate concentration at ½ Vmax, Ki is the affinity of the inhibitor for the free enzyme, and α is the ratio of the affinity of the inhibitor for the enzyme-substrate complex (Ki’) to Ki (typically noted as Ki’/Ki).
Density-Functional Theory Modelling
Density-functional theory (DFT) predictions were performed using Gaussian 16 [11] and Orca (version 4.0.1.2).[12] The compound 6 structure was initially created using Avogadro software (1.2.0) and geometry -optimised using an MMFF94s force field. Avogadro was also employed to explore conformers of the structure using a “systematic rotor search”. DFT geometry optimisations were initially carried out on the MMFF94s optimised structures using either the 6-31G basis set (for the B3LYP and M062X functionals) or the def2/SVP basis set (for the CAM-B3LYP functional). Structures were then optimised with a higher -level basis set (6-311++G(d,p), for the B3LYP and M062X functional, and def2/TZVP for the CAM-B3LYP functional). […]

T1 sequence (Q5VTY9 whole entry): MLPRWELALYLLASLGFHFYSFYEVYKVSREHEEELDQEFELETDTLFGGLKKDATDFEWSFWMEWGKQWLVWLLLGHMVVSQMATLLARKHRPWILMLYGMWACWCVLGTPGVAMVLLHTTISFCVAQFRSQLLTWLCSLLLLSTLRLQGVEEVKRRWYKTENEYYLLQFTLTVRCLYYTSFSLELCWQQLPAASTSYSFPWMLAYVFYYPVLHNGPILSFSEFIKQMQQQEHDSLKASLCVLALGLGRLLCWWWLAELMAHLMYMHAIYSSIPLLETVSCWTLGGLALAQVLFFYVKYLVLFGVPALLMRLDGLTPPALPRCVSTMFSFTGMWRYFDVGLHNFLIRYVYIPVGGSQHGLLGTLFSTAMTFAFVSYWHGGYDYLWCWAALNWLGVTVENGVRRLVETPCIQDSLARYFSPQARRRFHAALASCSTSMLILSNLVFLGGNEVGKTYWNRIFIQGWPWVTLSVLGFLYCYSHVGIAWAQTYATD

One may read the IC50 as the midpoint of a concentration-inhibition curve. Lower therefore signals higher potency. Take `CC[C@H](C)CNCC(=O)N1CCc2sccc2C1c1cccc(C)n1` (stereo partly shown) [Compound 4]: in data set [1] (from Acyl-cLIP IC50), the “fold reduced potency compared to 1” value was “≈ 2 fold”. For the same molecule, in data set [1], half-maximal inhibition (IC50) required 3.7 µM.
The Ki is the dissociation constant of the complex between target and ligand, obtained from inhibition or displacement. Take `CCC(C)CNCC(=O)N1CCc2sccc2C1COc1cccc(C)c1` (stereo not shown) [RUSKI-43]: the Ki in data set [2] was 6.9 µM.
On to `C#CCCC1(CCC(=O)N2CCc3sccc3C2c2cccc(C)n2)N=N1` (stereo not shown) [Compound 11], for which the activation half-life in data set [3] came out at 0.533 min. Further, the “crosslinking of probe to HHAT (in-gel fluorescence)” value in data set [4] is recorded as “crosslinking of probe 11 to HHAT promoted by UV irradiation; also recorded: enhanced labelling with UV irradiation”. Also, in data set [1], the midpoint of inhibition, the IC50, lay at 2.4 µM.
As for `Cc1cccc(C2NCCc3sccc32)n1` (stereo not shown) [Compound 2], in data set [1], the “HHAT inhibition (in words)” value was “no inhibition” and the half-maximal inhibitory concentration (IC50) was over 50 µM.
As to `Cc1cccc(C2c3ccsc3CCN2C(=O)CNCCC(C)C)n1` (stereo not shown) [Compound 5], the IC50 in data set [1] stood at 5.8 µM.
`C#CCCC1(CC(=O)N2CCc3sccc3C2c2cccc(C)n2)N=N1` (stereo not shown) [Compound 10] showed an activation half-life in data set [3] of 3.3 min. In addition, in data set [4], the “crosslinking of probe to HHAT (in-gel fluorescence)” value is “minimal crosslinking; also recorded: minimal labelling”. The IC50 in data set [1] worked out at 16 µM.
With `Cc1cccc(C2c3ccsc3CCN2C(=O)NCCC(C)C)n1` (stereo not shown) [Compound 9], in data set [1], the “HHAT inhibition (in words)” value is listed as “substantially reduced activity” and the IC50 is about 50 µM.
For `Cc1cccc(C2c3ccsc3CCN2C(=O)CN(C)CC(C)C)n1` (stereo not shown) [Compound 7] the same measures were “substantially reduced activity” and about 25 µM.
For the molecule `Cc1cccc(C2c3ccsc3CCN2C(=O)CNCC(C)C)n1` (single isomer, unassigned; (-)) [(-)-6], in data set [1], the “HHAT inhibition (in words)” value was “no HHAT inhibition” and the IC50 was over 50 µM.
The molecule `CC(=O)N1CCc2sccc2C1c1cccc(C)n1` (stereo not shown) [Compound 3] had a half-maximal inhibitory concentration (IC50) in data set [1] of 13 µM.
`Cc1cccc([C@H]2c3ccsc3CCN2C(=O)CNCC(C)C)n1` [(+)-6]: the Ki in data set [5] (competitive with respect to Pal-CoA, IMP-1575 50-0.023 μM, Pal-CoA 50-0.19 μM, mixed model fit) stood at 0.038 µM. The “mode of inhibition with respect to Pal-CoA” value in data set [5] (mixed model analysis) is “competitive”. Moreover, the “α (mixed model equation for inhibition)” value in data set [5] (ratio Ki'/Ki, with respect to Pal-CoA) is 470. Moreover, in data set [4] (40-fold excess IMP-1575 (400 μM) vs probe 11 (10 μM)), the “competition of probe 11 crosslinking to HHAT” value is “reduced crosslinking to near background levels”. Besides, in data set [1] (from Acyl-cLIP IC50), the “potency compared to (+/-)-6” value is recorded as “two‐fold increased potency”. The concentration for half-maximal inhibition (IC50) in data set [1] is 0.75 µM.
Regarding `Cc1cccc(C2c3ccsc3CCN2C(=O)CN2CCCC(C)C2)n1` (stereo not shown) [Compound 8], in data set [1], the “HHAT inhibition (in words)” value is on record as “substantially reduced activity” and the concentration for half-maximal inhibition (IC50) was about 50 µM.
In the case of `Cc1cccc(C2c3ccsc3CCN2C(=O)CNCC(C)C)n1` (stereo not shown) [Compound 6], inhibition in data set [1] was half-maximal at 1.3 µM (IC50).
